Source: patent US20210214364A1, “sGC STIMULATORS” (Cyclerion Therapeutics, Inc., priority 2013, published 2021)

biological target: T1, soluble guanylate cyclase (sGC) endogenously expressed in HEK293 cells (Homo sapiens, UniProt Q02108+Q02153); assay: sGC-HEK-cGMP assay with LC/MS detection (whole cell); assay type: cell-based; conditions: 10 μM DETA-NONOate, 20 min, concentration eliciting 50% of high control response (30 μM Compound Y), read-out: sGC_HEK_LC MS EC50 Abs
T1 construct: endogenously expressing soluble guanylate cyclase (sGC); endogenous in cells; host or cells: HEK293
T1 sequence (Q02153 1-619): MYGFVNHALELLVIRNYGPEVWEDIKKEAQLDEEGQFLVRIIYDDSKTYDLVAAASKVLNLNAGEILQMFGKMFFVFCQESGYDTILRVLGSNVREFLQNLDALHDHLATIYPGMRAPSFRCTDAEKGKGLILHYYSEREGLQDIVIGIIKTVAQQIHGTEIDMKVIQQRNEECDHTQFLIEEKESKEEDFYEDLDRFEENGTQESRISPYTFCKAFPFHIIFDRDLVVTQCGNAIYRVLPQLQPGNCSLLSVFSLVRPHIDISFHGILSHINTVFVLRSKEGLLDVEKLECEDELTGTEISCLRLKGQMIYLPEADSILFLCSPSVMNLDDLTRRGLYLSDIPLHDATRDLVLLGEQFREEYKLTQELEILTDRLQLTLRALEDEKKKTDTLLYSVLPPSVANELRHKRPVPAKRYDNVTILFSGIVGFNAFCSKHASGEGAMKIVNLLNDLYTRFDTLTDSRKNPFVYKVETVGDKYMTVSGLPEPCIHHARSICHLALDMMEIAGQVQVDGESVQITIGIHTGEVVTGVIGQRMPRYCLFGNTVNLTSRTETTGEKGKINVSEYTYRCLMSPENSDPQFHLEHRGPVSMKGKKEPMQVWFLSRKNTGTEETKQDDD
T1 sequence (Q02108 1-690): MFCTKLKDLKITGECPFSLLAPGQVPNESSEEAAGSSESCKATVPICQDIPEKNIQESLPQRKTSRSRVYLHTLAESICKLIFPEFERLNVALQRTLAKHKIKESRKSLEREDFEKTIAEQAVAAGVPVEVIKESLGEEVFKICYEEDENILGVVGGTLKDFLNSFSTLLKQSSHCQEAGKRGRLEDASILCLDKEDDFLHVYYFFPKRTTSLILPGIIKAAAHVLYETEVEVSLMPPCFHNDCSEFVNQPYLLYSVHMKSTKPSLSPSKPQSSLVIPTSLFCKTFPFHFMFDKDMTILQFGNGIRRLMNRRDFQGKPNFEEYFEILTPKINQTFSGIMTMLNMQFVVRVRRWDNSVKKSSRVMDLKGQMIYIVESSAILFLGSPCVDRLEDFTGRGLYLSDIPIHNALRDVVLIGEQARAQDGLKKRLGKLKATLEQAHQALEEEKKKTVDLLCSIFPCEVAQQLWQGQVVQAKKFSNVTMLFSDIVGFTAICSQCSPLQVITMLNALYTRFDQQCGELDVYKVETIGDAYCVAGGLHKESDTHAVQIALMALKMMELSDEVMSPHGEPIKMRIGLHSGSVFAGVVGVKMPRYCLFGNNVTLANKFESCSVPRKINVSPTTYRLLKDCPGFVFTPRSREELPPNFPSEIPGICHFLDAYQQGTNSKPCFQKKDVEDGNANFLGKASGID
Procedure: Example 2: Biological Activity Measurement by the sGC-HEK-cGMP Assay, with LC/MS Detection
Human embryonic kidney cells (HEK293), endogenously expressing soluble guanylate cyclase (sGC), were used to evaluate the activity of test compounds. Compounds stimulating the sGC enzyme should cause an increase in the intracellular concentration of cGMP. HEK 293 cells were seeded in Dulbecco's Modification of Eagle's Medium supplemented with fetal bovine serum (10% final) and penicillin (100 U/mL)/streptomycin (100 μg/mL) in a 50 μL volume at a density of 1.5×10^4 cells/well in a poly-D-lysine coated 384 well flat bottom plate. Cells were incubated overnight at 37° C. in a humidified chamber with 5% CO2. Medium was aspirated and cells were washed with 1× Hank's Buffered Saline Salt Solution (50 μL). Cells were then incubated for 15 minutes at 37° C. with 50 μL of a 0.5 mM 3-isobutyl-1-methylxanthine (IBMX) solution. Test article and Diethylenetriamine NONOate (DETA-NONOate) solutions (x […] concentration for test article solution and 10 μM concentration for DETA-NONOate solution; wherein x is one of the following concentrations);
were then added to the assay mixture and the resulting mixture incubated at 37° C. for 20 minutes. After the 20 minute incubation, the assay mixture was aspirated and 10% acetic acid containing 150 ng/mL+3-cGMP (internal standard for LCMS) (50 μL) was added to the cells. The plate was incubated at 4° C. for 30 minutes in the acetic acid solution to stop the reaction and lyse the cells. The plates were then centrifuged at 1,000 g for 3 minutes at 4° C. and the supernatant transferred to a clean reaction plate for LCMS analysis.
cGMP concentrations were determined from each sample using the LCMS conditions below (Table 2) and calculated standard curve. The standard curve was prepared in 10% acetic acid with 150 ng/mL+3cGMP (isotopically labelled cGMP with a weight 3 units higher than wild type) with the following final concentrations of cGMP in ng/mL: 1, 5, 10, 50, 100, 250, 500, 1000, 2000.
Data were normalized to a high control using the following equation: 100*(Sample−Low Control)/(High Control−Low Control), where the low control is the average of 16 samples treated with 1% DMSO, and the high control is the average of 16 samples treated with 30 μM of Compound Y depicted below. Data were fit using a 4-parameter fit (log(agonist) vs. response variable slope) using GraphPad Prism Software v.5. n=2 for all compounds. The Absolute EC50 was interpolated from the curve fit and is defined as the concentration at which a given compound elicits 50% of the high control response. Compounds failing to elicit a minimum response of 50% are reported as >30 μM. For compounds run in duplicate or n higher than 2, the result herein given is the geometric mean of the several results obtained.

SMILES	EC50 [nM]
COc1c(C)c(-c2nc(N)c3c(n2)NC(=O)C3(C)C(N)=O)nn1Cc1ccccc1F (centres unmarked) [Compound I-27]	≥ 1000
CCOC(=O)C1(C)C(=O)Nc2nc(-c3nn(Cc4ccccc4F)c(=O)n3C)nc(N)c21 (centres unmarked) [Compound I-29]	≥ 1000
COc1cc(-c2ncc(F)c(NCC(=O)O)n2)nn1Cc1ccccc1F [Compound I-9]	≥ 1000
COc1cc(-c2ncc(F)c(NCCO)n2)nn1Cc1ccccc1F [Compound I-13]	≥ 1000
COc1cc(-c2ncc(F)c(N3CCOCC3)n2)nn1Cc1ccccc1F [Compound I-23]	≥ 1000
CC1(C(N)=O)C(=O)Nc2nc(-c3cc(OC(F)F)n(CCC(F)(F)C(F)(F)F)n3)nc(N)c21 (centres unmarked) [Compound I-41]	≥ 1000
COc1cc(-c2ncc(F)c(N3CC(C)C(C(=O)O)C3)n2)nn1Cc1ccccc1F (centres unmarked) [Compound I-36]	≥ 1000
COc1cc(-c2nc3c(c(=O)[nH]2)C(C)(C(=O)NC2CC2)C(=O)N3)nn1Cc1ccccc1F (centres unmarked) [Compound I-43]	≥ 1000
COc1cc(-c2ncc(F)c(N3CCC(S(N)(=O)=O)CC3)n2)nn1Cc1ccccc1F [Compound I-33]	≥ 1000
CCOC(=O)C1(C)C(=O)Nc2nc(-c3cc(OC(C)C)n(Cc4ccccc4F)n3)nc(N)c21 (centres unmarked) [Compound I-8]	≥ 1000
COc1cc(-c2ncc(NC(=O)OCc3ccccc3)c(=O)[nH]2)nn1Cc1ccccc1F [Compound I-47]	≥ 1000
CC1(C(=O)NC2CC2)C(=O)Nc2nc(-c3cc(OC(F)F)n(CCC(F)(F)C(F)(F)F)n3)nc(N)c21 (centres unmarked) [Compound I-50]	≥ 1000
Cn1c(-c2nc(N)c3c(n2)NC(=O)C3(C)C(=O)NC2CC2)nn(Cc2ccccc2F)c1=O (centres unmarked) [Compound I-38]	≥ 1000
COc1cc(-c2nccc(N)n2)nn1Cc1ccccc1F [Compound I-6]	≥ 1000
COc1cc(-c2ncc(F)c(NCC(O)CO)n2)nn1Cc1ccccc1F (centres unmarked) [Compound I-64]	≥ 1000
COc1nc(-c2nc(N)c3c(n2)NC(=O)C3(C)C(=O)NC2CC2)nn1Cc1ccccc1F (centres unmarked) [Compound I-37]	≥ 1000
CCOc1cc(-c2nc(N)c3c(n2)NC(=O)C3(C)C(N)=O)nn1Cc1ccccc1F (centres unmarked) [Compound I-28]	≥ 1000

SMILES	EC50 [nM]
COc1cc(-c2nc(N)c3c(n2)NC(=O)C3(C)C(N)=O)nn1CCC(F)(F)F (centres unmarked) [Compound I-7]	≥ 1000
CCOC(=O)C1(C)C(=O)Nc2nc(-c3cc(OC)n(CCC(F)(F)F)n3)nc(N)c21 (centres unmarked) [Compound I-14]	≥ 1000
COc1cc(-c2nc3c(c(=O)[nH]2)=C(C)C(=O)N=3)nn1Cc1ccccc1F [Compound I-15]	≥ 1000
COc1cc(-c2ncc(F)c(N3CCCC3)n2)nn1Cc1ccccc1F [Compound I-22]	≥ 1000
CC1(C(N)=O)C(=O)Nc2nc(-c3cc(O)n(Cc4ccccc4F)n3)nc(N)c21 (centres unmarked) [Compound I-48]	≥ 1000
COc1cc(-c2ncc(F)c(N3CCNCC3)n2)nn1Cc1ccccc1F [Compound I-24]	≥ 1000
COc1cc(-c2ncc(F)c(NC(c3nnn[nH]3)C(C)C)n2)nn1Cc1ccccc1F (centres unmarked) [Compound I-65]	≥ 1000
COc1cc(-c2ncc(F)c(N3CCNC(=O)C3)n2)nn1Cc1ccccc1F [Compound I-62]	≥ 1000
COC(=O)NC1(C)C(=O)Nc2nc(-c3cc(OC)n(Cc4ccccc4F)n3)[nH]c(=O)c21 (centres unmarked) [Compound I-26]	≥ 1000
CCOC(=O)C1(C)C(=O)Nc2nc(-c3nn(Cc4ccccc4F)c(=O)[nH]3)nc(N)c21 (centres unmarked) [Compound I-21]	≥ 1000
CCOC(=O)C1(C)C(=O)Nc2nc(-c3cc(OC(F)F)n(CCC(F)(F)C(F)(F)F)n3)nc(N)c21 (centres unmarked) [Compound I-57]	≥ 1000
CC1(C(=O)NC2CC2)C(=O)Nc2nc(-c3cc(OC(F)F)n(Cc4cccc(F)c4F)n3)nc(N)c21 (centres unmarked) [Compound I-54]	101 to 1000
COc1cc(-c2ncc(F)c(N3CCCCC3)n2)nn1Cc1ccccc1F [Compound I-31]	≥ 1000
COc1cc(-c2ncc(F)c(N3CCC(O)(CO)CC3)n2)nn1Cc1ccccc1F [Compound I-61]	≥ 1000
CCOC(=O)C1(C)C(=O)Nc2nc(-c3cc(OC(F)F)n(Cc4ccc(F)cc4F)n3)nc(N)c21 (centres unmarked) [Compound I-55]	101 to 1000
CC1(C)C(=O)Nc2nc(-c3cc(OC(F)F)n(Cc4cccc(F)c4F)n3)nc(N)c21 [Compound I-34]	101 to 1000

Second part, the molecule after the results:

EC50 [nM]	SMILES
101 to 1000	CC1(C(N)=O)C(=O)Nc2nc(-c3cc(OC(F)F)n(Cc4cccc(F)c4F)n3)nc(N)c21 (centres unmarked) [Compound I-53]
101 to 1000	COc1c(C#N)c(-c2nc(N)c3c(n2)NC(=O)C3(C)C(N)=O)nn1Cc1ccccc1F (centres unmarked) [Compound I-25]
101 to 1000	CCOC(=O)C1(C)C(=O)Nc2nc(-c3cc(OCC)n(Cc4ccccc4F)n3)nc(N)c21 (centres unmarked) [Compound I-46]
101 to 1000	C[C@H]1CCCN(c2nc(-c3cc(OC(F)F)n(Cc4ccccc4F)n3)ncc2F)[C@H]1C(=O)O [Compound I-42]
101 to 1000	COc1cc(-c2nc(N)c3c(n2)NC(=O)C3(C)C(N)=O)nn1Cc1ccccc1F (centres unmarked) [Compound I-2]
101 to 1000	CC1(C(=O)NC2CC2)C(=O)Nc2nc(-c3cc(OC(F)F)n(Cc4cccc(F)c4F)n3)ncc21 (centres unmarked) [Compound I-40]
101 to 1000	COc1cc(-c2ncc(F)c(N3CCC(C)(C(=O)O)CC3)n2)nn1Cc1ccccc1F [Compound I-68]
101 to 1000	CCOC(=O)C1(C)C(=O)Nc2nc(-c3cc(OC)n(Cc4ccccc4F)n3)[nH]c(=O)c21 (centres unmarked) [Compound I-35]
101 to 1000	CCOC(=O)C1(C)C(=O)Nc2nc(-c3cc(OC(F)F)n(Cc4cccc(F)c4F)n3)nc(N)c21 (centres unmarked) [Compound I-52]
101 to 1000	COc1cc(-c2ncc(F)c(NC[C@@H](C(=O)O)C(C)C)n2)nn1Cc1ccccc1F [Compound I-60]
101 to 1000	CCOC(=O)C1(C)C(=O)Nc2nc(-c3nn(Cc4ccccc4F)c(OC)c3C)nc(N)c21 (centres unmarked) [Compound I-45]
101 to 1000	CC1(C(N)=O)C(=O)Nc2nc(-c3cc(OC(F)F)n(Cc4ccccc4F)n3)nc(N)c21 (centres unmarked) [Compound I-71]
101 to 1000	COc1cc(-c2ncc(F)c(N3CCC[C@H](C)[C@@H]3C(=O)O)n2)nn1Cc1ccccc1F [Compound I-70]
101 to 1000	COc1cc(-c2ncc(F)c(N3CCC(C(=O)O)(C(C)C)CC3)n2)nn1Cc1ccccc1F [Compound I-67]
